Tested on: HT-1080 cells
Assay: HT-1080 cell viability assay (ferroptosis induced by RSL3, Cell Titer-Glo)
Type: cell-based
Conditions: Homo sapiens, ferroptosis inducer RSL3, 20 hours, ferroptosis inhibitory activity, Table 2
How it was run: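 EC50 fitted by sigmoidal dose-response regression on luminescent viability data normalized to untreated cells. Compounds ran as a 10-point, 3-fold series from 1.1 μM alongside RSL3 for 20 hours, after overnight seeding.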

## N[C@H]1CC[C@@H](CNc2ccc3c(c2)CCC3)CC1 [Compound 307, N-(((1s,4s)-4-aminocyclohexyl)methyl)-2,3-dihydro-1H-inden-5-amine]
HT-1080, 20 h
  EC50: 0.1 to 100 nM

## N[C@H]1CC[C@H](CNc2ccc3c(c2)CCC3)CC1 [Compound 308, N-(((1r,4r)-4-aminocyclohexyl)methyl)-2,3-dihydro-1H-inden-5-amine]
HT-1080, 20 h
  EC50: 0.1 to 100 nM

## N[C@H]1CC[C@@H](CNc2ccc3c(c2)CCCC3)CC1 [Compound 309, N-(((1r,4r)-4-aminocyclohexyl)methyl)-5,6,7,8-tetrahydronaphthalen-2-amine]
HT-1080, 20 h
  EC50: 0.1 to 100 nM

## N[C@H]1CC[C@H](CNc2ccc3c(c2)CCCC3)CC1 [Compound 310, N-(((1r,4r)-4-aminocyclohexyl)methyl)-5,6,7,8-tetrahydronaphthalen-2-amine]
HT-1080, 20 h
  EC50: 0.1 to 100 nM

## Cc1cc(NC2CCC(CN)CC2)cc(C)c1C (stereo not drawn) [Compound 312, N-(4-(aminomethyl)cyclohexyl)-3,4,5-trimethylaniline]
HT-1080, 20 h
  EC50: 0.1 to 100 nM

## Cc1cc(NC[C@H]2CC[C@H](N)CC2)cc(C)c1C [Compound 314, N-(((1r,4r)-4-aminocyclohexyl)methyl)-3,4,5-trimethylaniline]
HT-1080, 20 h
  EC50: 0.1 to 100 nM

## CCCc1ccc(NC[C@H]2CC[C@H](N)CC2)cc1 [Compound 315, N-(((1r,4r)-4-aminocyclohexyl)methyl)-4-propylaniline]
HT-1080, 20 h
  EC50: 0.1 to 100 nM

## Cc1ccc(NC[C@H]2CC[C@H](N)CC2)cc1C [Compound 316, N-(((1r,4r)-4-aminocyclohexyl)methyl)-3,4-dimethylaniline]
HT-1080, 20 h
  EC50: 0.1 to 100 nM

## CC(C)(C)c1ccc(NC2CCC(NCCCO)CC2)cc1 (stereo not drawn) [Compound 317, 3-((4-((4-(tert-butyl)phenyl)amino)cyclohexyl)amino)propan-1-ol]
HT-1080, 20 h
  EC50: 0.1 to 100 nM

## NC1CCC(Nc2ccc(C3CCC3)cc2)CC1 (stereo not drawn) [Compound 318A, 1-N-(4-cyclobutylphenyl)cyclohexane-1,4-diamine]
  EC50: 0.1 to 100 nM

## CN(C)CCOC1CCC(Nc2ccc(C(C)(C)C)cc2)CC1 (stereo not drawn) [Compound 319A, 4-(tert-butyl)-N-(4-(2-(dimethylamino)ethoxy)cyclohexyl)aniline]
HT-1080, 20 h
  EC50: 100 to 1000 nM

## CCOCC(C)(C)c1ccc(NC2CCC(N)CC2)cc1 (stereo not drawn) [Compound 320A, N1-(4-(1-ethoxy-2-methylpropan-2-yl)phenyl)cyclohexane-1,4-diamine]
HT-1080, 20 h
  EC50: 100 to 1000 nM

## CC(C)(C)c1ccc(NC2CCC(NCCCCO)CC2)cc1 (stereo not drawn) [Compound 321, 4-((4-((4-(tert-butyl)phenyl)amino)cyclohexyl)amino) butan-1-ol]
HT-1080, 20 h
  EC50: 100 to 1000 nM

## CC(C)(C)c1ccc(NC2CCC(CNCCO)CC2)cc1 (stereo not drawn) [Compound 322, 2-(((4-((4-(tert-butyl)phenyl)amino)cyclohexyl)methyl)amino)ethan-1-ol]
HT-1080, 20 h
  EC50: 0.1 to 100 nM

## CC(C)(C)c1ccc(NC[C@H]2CC[C@H](NCCO)CC2)cc1 [Compound 323, 2-(((1r,4r)-4-(((4-(tert-butyl)phenyl)amino)methyl)cyclohexyl)amino)ethan-1-ol]
HT-1080, 20 h
  EC50: 0.1 to 100 nM

## CC1(C)Cc2ccc(NC3CCC(N)CC3)cc2C1 (stereo not drawn) [Compound 324, N-(2,2-dimethyl-2,3-dihydro-1H-inden-5-yl)cyclohexane-1,4-diamine]
HT-1080, 20 h
  EC50: 0.1 to 100 nM

## CC1(C)CC(C)(C)c2cc(NC3CCC(N)CC3)ccc21 (stereo not drawn) [Compound 325A, N1-(1,1,3,3-tetramethyl-2,3-dihydro-1H-inden-5-yl)cyclohexane-1,4-diamine]
HT-1080, 20 h
  EC50: 0.1 to 100 nM

## CC(C)(C)c1ccc(NC2CCC(CCCCCN)CC2)cc1 (stereo not drawn) [Compound 326, N-(4-(5-aminopentyl)cyclohexyl)-4-(tert-butyl)aniline]
HT-1080, 20 h
  EC50: 0.1 to 100 nM

## CC(C)(C)c1ccc(NC2CCC(N)C(O)C2)cc1 (stereo not drawn) [Compound 327, 2-amino-5-((4-(tert-butyl)phenyl)amino)cyclohexan-1-ol]
HT-1080, 20 h
  EC50: 100 to 1000 nM

## CC(C)(C)c1ccc(NCC2CCC(N)C2)cc1 (stereo not drawn) [Compound 328, N-((3-aminocyclopentyl)methyl)-4-(tert-butyl)aniline]
HT-1080, 20 h
  EC50: 0.1 to 100 nM

## CCc1cc(NC2CCC(N)CC2)ccc1C(C)(C)C (stereo not drawn) [Compound 329, 1-N-(4-(tert-butyl)-3-ethylphenyl)cyclohexane-1,4-diamine]
HT-1080, 20 h
  EC50: 0.1 to 100 nM

Source: patent publication US20240360114A1 (SIRONAX LTD., priority 2021, published 2024)
